Measurements from US10781206B2, “Tetrahydropyrazolopyridine compounds for the treatment of infectious diseases” (Hoffmann-La Roche Inc., priority 2017, dated 2020).

Test system: HBV
Assay: HBV inhibition assay in HepG2.2.15 cells (extracellular HBV DNA by qPCR)
Type: cell-based
Settings: Hepatitis B virus, 120 h, extracellular HBV DNA in culture supernatant by qPCR, five days after compound treatment
Excerpt: Example 19: HBV Inhibition Assays
Cell Line and Culture Conditions:
HepG2.2.15 is a stably-transfected cell line containing the HBV genome. It is derived from the hepatoblastoma cell line Hep G2 (American Type Culture Collection, ATCC® HB-8065™) by the published procedures described in reference: MA Selles et al. Proc. Natl. Acad. Sci. USA 1987, 84, 1005-1009. The cell line was maintained in Dulbecco's modified Eagle's medium and nutrient mixture F-12 (DMEM/F-12, Gibco, Cat. #: 11320-033) supplemented with 10% fetal bovine serum (Gibco, Cat. #: 10099-141), 100 U/mL penicillin, 100 μg/mL streptomycin (Gibco, Cat. #: 15140-122), and 0.3 mg/mL of G418 Sulfate (Gibco, Cat. #: 10131-027).
Anti-HBV Activity In Vitro:
HepG2.2.15 cells were seeded into 96-well plates at a density of 3×10^4 cells per well in culture media of 100 μL DMEM/F-12 supplemented with 2.5% fetal bovine serum, 100 U/mL penicillin, 100 μg/mL streptomycin and cultured overnight at 37° C. The test compounds were serially half-log diluted in DMSO, then diluted 100 times in culture media. 100 μL culture media containing diluted compounds were added into the plates to reach 0.5% final concentration of DMSO in every well. Five days after compound treatment, culture supernatant was collected for further analysis.
For quantitative PCR detection of extracellular HBV DNA, culture supernatant was processed by 500 μg/mL Proteinase K (Sigma, Cat. #: P2308) digestion at 50° C. for 1 hour. After heat inactivation of the enzyme at 95° C. for 15 minutes, the samples were subjected to HBV DNA quantification by qPCR. The effective compound concentration at which HBV replication was inhibited by 50% (EC50) was determined.

SMILES | EC50 [µM]
O=C(Nc1cc(F)c(F)c(F)c1)C1CCn2ncc(N3CCOCC3=O)c2C1 (centres unmarked) [Example 9, 3-(3-oxomorpholin-4-yl)-N-(3,4,5-trifluorophenyl)-4,5,6,7-tetrahydropyrazolo[1,5-a]pyridine-5-carboxamide] | 0.84
O=C(Nc1cc(F)c(F)c(F)c1)C1CCn2ncc(N3CCCS3(=O)=O)c2C1 (centres unmarked) [Example 5, 3-(1,1-dioxo-1,2-thiazolidin-2-yl)-N-(3,4,5-trifluorophenyl)-4,5,6,7-tetrahydropyrazolo[1,5-a]pyridine-5-carboxamide] | 0.039
Cc1noc(C2CC(=O)N(c3cnn4c3CC(C(=O)Nc3cc(F)c(F)c(F)c3)CC4)C2)n1 (centres unmarked) [Example 10, 3-[4-(3-methyl-1,2,4-oxadiazol-5-yl)-2-oxo-pyrrolidin-1-yl]-N-(3,4,5-trifluorophenyl)-4,5,6,7-tetrahydropyrazolo[1,5-a]pyridine-5-carboxamide] | 0.33
Cc1cc(NC(=O)C2CCn3ncc(-c4ccc(F)cc4F)c3C2)ccc1F (centres unmarked) [Example 14, 3-(2,4-difluorophenyl)-N-(4-fluoro-3-methyl-phenyl)-4,5,7-tetrahydropyrazolo[1,5-a]pyridine-5-carboxamide] | 0.089
Cc1nc(C2CC(=O)N(c3cnn4c3CC(C(=O)Nc3cc(F)c(F)c(F)c3)CC4)C2)no1 (centres unmarked) [Example 18, 3-[4-(5-methyl-1,2,4-oxadiazol-3-yl)-2-oxo-pyrrolidin-1-yl]-N-(3,4,5-trifluorophenyl)-4,5,6,7-tetrahydropyrazolo[1,5-a]pyridine-5-carboxamide] | 0.39
O=C(Nc1ccsc1)C1CCn2ncc(-c3ccc(F)cc3F)c2C1 (centres unmarked) [Example 11, 3-(2,4-difluorophenyl)-N-(3-thienyl)-4,5,6,7-tetrahydropyrazolo[1,5-a]pyridine-5-carboxamide] | 0.59
O=C(Nc1cc(F)c(F)c(F)c1)C1CCn2ncc(N3CCN(Cc4ccccc4)S3(=O)=O)c2C1 (centres unmarked) [Example 6, 3-(5-benzyl-1,1-dioxo-1,2,5-thiadiazolidin-2-yl)-N-(3,4,5-trifluorophenyl)-4,5,6,7-tetrahydropyrazolo[1,5-a]pyridine-5-carboxamide] | 0.24
O=C(Nc1cc(F)nc(F)c1)C1CCn2ncc(-c3ccc(F)cc3F)c2C1 (centres unmarked) [Example 15, 3-(2,4-difluorophenyl)-N-(2,6-difluoro-4-pyridyl)-4,5,6,7-tetrahydropyrazolo[1,5-a]pyridine-5-carboxamide] | 0.45
CC1(C)CN(c2cnn3c2CC(C(=O)Nc2cc(F)c(F)c(F)c2)CC3)C(=O)O1 (centres unmarked) [Example 2, 3-(5,5-dimethyl-2-oxo-oxazolidin-3-yl)-N-(3,4,5-trifluorophenyl)-4,5,6,7-tetrahydropyrazolo[1,5-a]pyridine-5-carboxamide] | 0.3
O=C(Nc1ccnc(F)c1)C1CCn2ncc(-c3ccc(F)cc3F)c2C1 (centres unmarked) [Example 16, 3-(2,4-difluorophenyl)-N-(2-fluoro-4-pyridyl)-4,5,6,7-tetrahydropyrazolo[1,5-a]pyridine-5-carboxamide] | 0.35
O=C(Nc1ccc(F)c(C(F)(F)F)c1)C1CCn2ncc(-c3ccc(F)cc3F)c2C1 (centres unmarked) [Example 12, 3-(2,4-difluorophenyl)-N-[4-fluoro-3-(trifluoromethyl)phenyl]-4,5,6,7-tetrahydropyrazolo[1,5-a]pyridine-5-carboxamide] | 0.87
O=C(Nc1cc(F)c(F)c(F)c1)C1CCn2ncc(-c3ccc(F)cc3F)c2C1 (centres unmarked) [Example 3, 3-(2,4-difluorophenyl)-N-(3,4,5-trifluorophenyl)-4,5,6,7-tetrahydropyrazolo[1,5-a]pyridine-5-carboxamide] | 0.16
O=C(Nc1cc(F)c(F)c(F)c1)C1CCn2ncc(N3CCCC3=O)c2C1 (centres unmarked) [Example 1, 3-(2-oxopyrrolidin-1-yl)-N-(3,4,5-trifluorophenyl)-4,5,6,7-tetrahydropyrazolo[1,5-a]pyridine-5-carboxamide] | 0.37
N#Cc1cc(NC(=O)C2CCn3ncc(-c4ccc(F)cc4F)c3C2)ccc1F (centres unmarked) [Example 13, N-(3-cyano-4-fluoro-phenyl)-3-(2,4-difluorophenyl)-4,5,6,7-tetrahydropyrazolo[1,5-a]pyridine-5-carboxamide] | 0.21
O=C(Nc1cc(F)c(F)c(F)c1)C1CCn2ncc(C3CCCC3)c2C1 (centres unmarked) [Example 4, 3-cyclopentyl-N-(3,4,5-trifluorophenyl)-4,5,6,7-tetrahydropyrazolo[1,5-a]pyridine-5-carboxamide] | 0.15
O=C(Nc1cc(F)c(F)c(F)c1)C1CCn2ncc(N3CCNS3(=O)=O)c2C1 (centres unmarked) [Example 7, 3-(1,1-dioxo-1,2,5-thiadiazolidin-2-yl)-N-(3,4,5-trifluorophenyl)-4,5,6,7-tetrahydropyrazolo[1,5-a]pyridine-5-carboxamide] | 0.11
N#CC1CC(=O)N(c2cnn3c2CC(C(=O)Nc2cc(F)c(F)c(F)c2)CC3)C1 (centres unmarked) [Example 8, 3-(4-cyano-2-oxo-pyrrolidin-1-yl)-N-(3,4,5-trifluorophenyl)-4,5,6,7-tetrahydropyrazolo[1,5-a]pyridine-5-carboxamide] | 0.19
